Source: ChEMBL document CHEMBL1139500, “The next generation of phosphodiesterase inhibitors: structural clues to ligand and substrate selectivity of phosphodiesterases” (J Med Chem, 2005)

Legend:
[1] = molecular target: cGMP-dependent 3',5'-cyclic phosphodiesterase (Homo sapiens, UniProt O00408); assay: Inhibition of human phosphodiesterase 2
Phosphodiesterase 1 = Phosphodiesterase 1 (Homo sapiens, UniProt P54750+Q01064+Q14123); assay: Inhibition of human phosphodiesterase 1; assay type: protein assay
Phosphodiesterase 6 = assay: Inhibition of human phosphodiesterase 6; assay type: protein assay
[2] = Inhibitory activity against phosphodiesterase 8
Phosphodiesterase 7 [3] = molecular target: T1, Phosphodiesterase 7 (Homo sapiens, UniProt Q13946+Q9NP56); assay: (§1) Inhibition of human phosphodiesterase 7; assay type: protein assay
T1 sequence (Q13946 whole entry, looked up): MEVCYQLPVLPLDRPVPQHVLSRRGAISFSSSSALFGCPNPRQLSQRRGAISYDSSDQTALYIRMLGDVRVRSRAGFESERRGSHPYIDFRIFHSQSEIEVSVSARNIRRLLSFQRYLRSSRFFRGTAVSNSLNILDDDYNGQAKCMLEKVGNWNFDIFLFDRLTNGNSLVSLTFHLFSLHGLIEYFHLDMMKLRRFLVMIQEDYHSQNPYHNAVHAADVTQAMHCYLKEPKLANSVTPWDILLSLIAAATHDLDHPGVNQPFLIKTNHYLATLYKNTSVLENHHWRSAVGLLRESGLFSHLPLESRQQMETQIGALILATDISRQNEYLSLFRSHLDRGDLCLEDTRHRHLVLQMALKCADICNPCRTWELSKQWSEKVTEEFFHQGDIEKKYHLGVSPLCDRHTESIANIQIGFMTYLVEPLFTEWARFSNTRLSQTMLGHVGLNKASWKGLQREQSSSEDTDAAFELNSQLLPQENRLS
T1 sequence (Q9NP56 whole entry, looked up): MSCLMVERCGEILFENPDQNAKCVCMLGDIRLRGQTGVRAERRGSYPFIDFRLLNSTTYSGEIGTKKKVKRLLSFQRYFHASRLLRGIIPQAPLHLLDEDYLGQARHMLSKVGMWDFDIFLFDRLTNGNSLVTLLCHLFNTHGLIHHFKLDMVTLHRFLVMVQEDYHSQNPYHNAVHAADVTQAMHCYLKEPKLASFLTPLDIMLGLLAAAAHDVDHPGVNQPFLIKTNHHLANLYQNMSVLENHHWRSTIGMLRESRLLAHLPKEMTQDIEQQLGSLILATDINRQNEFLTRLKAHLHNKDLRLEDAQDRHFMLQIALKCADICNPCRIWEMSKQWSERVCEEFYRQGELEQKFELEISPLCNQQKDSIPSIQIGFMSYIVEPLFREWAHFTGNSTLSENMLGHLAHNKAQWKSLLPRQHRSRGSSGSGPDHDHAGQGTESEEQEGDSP

Phosphodiesterase 7 [4] = molecular target: T1, Phosphodiesterase 7; assay: as §1; assay type: protein assay; remark: listed apart in the source
[5] = molecular target: High affinity cGMP-specific 3',5'-cyclic phosphodiesterase 9A (Homo sapiens, UniProt O76083); assay: Inhibition of human phosphodiesterase 9
Sequence of High affinity cGMP-specific 3',5'-cyclic phosphodiesterase 9A (O76083 whole entry): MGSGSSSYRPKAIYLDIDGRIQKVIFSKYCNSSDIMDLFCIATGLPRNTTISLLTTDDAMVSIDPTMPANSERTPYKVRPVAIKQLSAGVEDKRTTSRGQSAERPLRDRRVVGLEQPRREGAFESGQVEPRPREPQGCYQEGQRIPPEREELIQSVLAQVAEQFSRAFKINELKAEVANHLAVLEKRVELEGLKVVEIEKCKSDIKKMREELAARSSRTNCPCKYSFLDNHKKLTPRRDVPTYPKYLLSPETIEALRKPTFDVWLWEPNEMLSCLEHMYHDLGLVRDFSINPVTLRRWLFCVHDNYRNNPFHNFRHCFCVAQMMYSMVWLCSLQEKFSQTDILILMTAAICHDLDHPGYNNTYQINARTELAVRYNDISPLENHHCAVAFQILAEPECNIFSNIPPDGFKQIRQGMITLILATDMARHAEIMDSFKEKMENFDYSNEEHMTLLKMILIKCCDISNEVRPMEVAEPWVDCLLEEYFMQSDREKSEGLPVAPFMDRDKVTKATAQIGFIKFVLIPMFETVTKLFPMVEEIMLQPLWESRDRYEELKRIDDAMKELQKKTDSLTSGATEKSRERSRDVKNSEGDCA

[6] = molecular target: cAMP and cAMP-inhibited cGMP 3',5'-cyclic phosphodiesterase 10A (Homo sapiens, UniProt Q9Y233); assay: Inhibitory concentration value against phosphodiesterase 10
Sequence of cAMP and cAMP-inhibited cGMP 3',5'-cyclic phosphodiesterase 10A (Q9Y233 whole entry): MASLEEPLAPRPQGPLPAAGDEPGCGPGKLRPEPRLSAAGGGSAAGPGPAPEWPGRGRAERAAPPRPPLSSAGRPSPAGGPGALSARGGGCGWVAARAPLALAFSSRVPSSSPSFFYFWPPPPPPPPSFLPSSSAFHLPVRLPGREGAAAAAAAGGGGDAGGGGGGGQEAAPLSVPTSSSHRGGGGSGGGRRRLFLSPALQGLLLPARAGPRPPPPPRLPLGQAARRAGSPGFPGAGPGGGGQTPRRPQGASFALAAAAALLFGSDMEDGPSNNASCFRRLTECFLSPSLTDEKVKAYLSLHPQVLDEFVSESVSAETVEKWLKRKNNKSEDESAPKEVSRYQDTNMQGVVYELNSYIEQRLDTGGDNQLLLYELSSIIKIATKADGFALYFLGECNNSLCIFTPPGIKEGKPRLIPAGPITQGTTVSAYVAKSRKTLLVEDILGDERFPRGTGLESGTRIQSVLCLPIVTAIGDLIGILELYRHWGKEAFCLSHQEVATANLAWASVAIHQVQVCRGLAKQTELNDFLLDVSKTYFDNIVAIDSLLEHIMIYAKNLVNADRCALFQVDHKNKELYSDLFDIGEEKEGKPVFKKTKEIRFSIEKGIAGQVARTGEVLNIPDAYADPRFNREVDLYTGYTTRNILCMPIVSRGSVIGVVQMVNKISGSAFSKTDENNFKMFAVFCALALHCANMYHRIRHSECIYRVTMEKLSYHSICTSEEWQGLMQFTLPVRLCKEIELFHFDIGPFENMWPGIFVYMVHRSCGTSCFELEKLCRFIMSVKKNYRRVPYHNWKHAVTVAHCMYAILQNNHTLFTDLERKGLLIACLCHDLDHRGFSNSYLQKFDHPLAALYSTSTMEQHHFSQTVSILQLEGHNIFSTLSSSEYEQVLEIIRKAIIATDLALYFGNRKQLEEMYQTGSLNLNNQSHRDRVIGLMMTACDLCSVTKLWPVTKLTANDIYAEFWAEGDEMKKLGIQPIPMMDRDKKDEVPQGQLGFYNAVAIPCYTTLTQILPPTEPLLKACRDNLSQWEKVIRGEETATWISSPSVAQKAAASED

Sequence of cGMP-dependent 3',5'-cyclic phosphodiesterase (O00408 whole entry): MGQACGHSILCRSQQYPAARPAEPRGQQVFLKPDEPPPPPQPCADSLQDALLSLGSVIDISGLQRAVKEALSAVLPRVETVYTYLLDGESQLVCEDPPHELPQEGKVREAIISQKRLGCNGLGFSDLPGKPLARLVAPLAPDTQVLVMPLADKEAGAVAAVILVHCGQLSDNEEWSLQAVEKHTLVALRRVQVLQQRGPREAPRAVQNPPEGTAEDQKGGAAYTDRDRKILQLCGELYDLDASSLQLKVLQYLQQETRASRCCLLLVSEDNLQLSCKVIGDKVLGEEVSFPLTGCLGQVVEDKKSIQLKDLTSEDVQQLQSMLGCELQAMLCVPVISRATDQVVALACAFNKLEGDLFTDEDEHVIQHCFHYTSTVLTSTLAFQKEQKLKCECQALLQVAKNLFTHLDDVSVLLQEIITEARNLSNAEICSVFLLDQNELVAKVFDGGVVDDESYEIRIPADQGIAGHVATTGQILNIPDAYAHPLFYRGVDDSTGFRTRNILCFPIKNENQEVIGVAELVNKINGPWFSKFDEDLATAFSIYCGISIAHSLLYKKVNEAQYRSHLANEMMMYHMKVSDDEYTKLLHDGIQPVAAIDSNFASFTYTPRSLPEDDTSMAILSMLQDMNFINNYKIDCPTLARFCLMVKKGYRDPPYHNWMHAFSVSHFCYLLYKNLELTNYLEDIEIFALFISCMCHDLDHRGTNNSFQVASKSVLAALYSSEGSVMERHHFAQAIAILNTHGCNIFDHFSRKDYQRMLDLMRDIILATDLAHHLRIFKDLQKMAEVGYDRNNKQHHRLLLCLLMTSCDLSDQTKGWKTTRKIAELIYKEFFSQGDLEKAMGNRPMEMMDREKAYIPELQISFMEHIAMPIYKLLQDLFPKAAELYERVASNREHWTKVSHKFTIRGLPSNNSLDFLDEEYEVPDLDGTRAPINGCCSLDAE

**Q.** With `CCCCCC[C@@H]([C@@H](C)O)n1cnc2c(N)ncnc21` [EHNA] as the molecule, how does the Ki [1] read?
**A.** Its Ki is 1 µM.

**Q.** Which Ki (Phosphodiesterase 1) does the source give for `CCOC(=O)C1=C[C@]2(CC)CCCN3CCc4c(n1c1ccccc41)[C@@H]32` [VINPOCETINE] here?
**A.** Its Ki is 14 µM.

**Q.** What does the source list for `OCCN(CCO)c1nc(N2CCCCC2)c2nc(N(CCO)CCO)nc(N3CCCCC3)c2n1` [DIPYRIDAMOLE]?
**A.** Ki (Phosphodiesterase 6): 0.125 µM; Ki [2]: 9 µM; Ki (Phosphodiesterase 7 [3]): 0.6 µM

**Q.** Which Inhibition (Phosphodiesterase 7 [4]) does the source give for `Cc1nc(N)c2ccc(-c3nn(C)/c(=N/C4CCCCC4)s3)cc2n1` here?
**A.** Its Inhibition is 3.9 µM.

**Q.** With `CC(C)Cn1c(=O)n(C)c(=O)c2nc[nH]c21` [ISOBUTYLMETHYLXANTHINE] as the molecule, how does the Ki (Phosphodiesterase 7 [3]) read?
**A.** The Ki was 4 µM.

**Q.** For `Cn1nc(-c2ccc(Cl)cc2)s/c1=N\C1CCCCC1`, which Inhibition (Phosphodiesterase 7 [4]) is on record?
**A.** Its Inhibition is 1.5 µM.

**Q.** With `CCCOc1ccccc1-c1nc2[nH]nnc2c(=O)[nH]1` [ZAPRINAST] as the molecule, how does the Ki (Phosphodiesterase 6) read?
**A.** The Ki was 0.4 µM.

**Q.** What about the Ki [5] of the same molecule?
**A.** Its Ki is 35 µM.

**Q.** What about the IC50 [6] of the same molecule?
**A.** The IC50 was 22 µM.
